Test results: US8017782B2, “4-phenyl-5-oxo-1,4,5,6,7,8-hexahydroquinoline derivatives as medicaments for the treatment of infertility” (N.V. Organon, priority 2005, dated 2011)

Each compound was assayed against T1, human FSH receptor (Homo sapiens, UniProt P23945) (assay: Agonistic activity at the human FSH receptor expressed in CHO cells (CRE-luciferase reporter)). Conditions: CHO cells stably transfected with human FSH receptor and CRE/luciferase reporter; tested 0.1 nM to 10 μM; read-out: EC50 (concentration of test compound causing half-maximal (50%) luciferase stimulation).
T1 construct: expressed in transfected cells; host or cells: Chinese Hamster Ovary (CHO) cells
T1 sequence (P23945 18-695): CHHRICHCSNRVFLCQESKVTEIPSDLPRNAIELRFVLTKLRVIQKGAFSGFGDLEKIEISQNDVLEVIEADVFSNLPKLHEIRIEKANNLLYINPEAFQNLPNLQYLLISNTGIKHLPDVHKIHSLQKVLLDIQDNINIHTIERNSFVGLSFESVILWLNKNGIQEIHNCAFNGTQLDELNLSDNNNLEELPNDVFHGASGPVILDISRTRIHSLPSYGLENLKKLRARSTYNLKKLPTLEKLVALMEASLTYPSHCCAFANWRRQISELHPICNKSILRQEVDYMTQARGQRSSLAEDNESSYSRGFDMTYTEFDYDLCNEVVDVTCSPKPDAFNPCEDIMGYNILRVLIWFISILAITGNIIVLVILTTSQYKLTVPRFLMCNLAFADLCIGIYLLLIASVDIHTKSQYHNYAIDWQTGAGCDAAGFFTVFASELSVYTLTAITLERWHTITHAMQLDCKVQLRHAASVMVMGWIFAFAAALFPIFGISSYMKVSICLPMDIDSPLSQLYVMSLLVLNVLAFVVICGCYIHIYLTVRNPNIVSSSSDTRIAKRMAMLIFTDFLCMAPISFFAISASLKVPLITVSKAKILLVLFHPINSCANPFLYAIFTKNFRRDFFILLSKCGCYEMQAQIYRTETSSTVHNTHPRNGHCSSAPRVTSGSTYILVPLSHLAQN
Type: cell-based
Experimental: Agonistic Activity of Compounds at the Human FSH Receptor Expressed in CHO Cells
Agonist activity of the compounds at the human FSH receptor was tested in Chinese Hamster Ovary (CHO) cells stably transfected with the human FSH receptor and cotransfected with a cAMP responsive element (CRE)/promotor directing the expression of a firefly luciferase reporter gene. Binding of the compound to the Gs-coupled FSH receptor will result in an increase of cAMP, which in turn will induce an increased transactivation of the luciferase reporter construct. The luciferase activity was quantified using a luminescence counter. The compounds were tested in the concentration range of 0.1 nM to 10 μM. This assay was used to determine the EC50 (concentration of test compound causing half-maximal (50%) luciferase stimulation) and efficacy of the compounds compared to recombinant human FSH. For this, the software program XLfit (Excel version 2.0, built 30, ID Business Solutions Limited) was used.

Row | Structure (SMILES) | EC50 [nM]
1 | CCCC1CC(=O)C2=C(C1)NC(C)=C(C#N)C2c1cc(Br)c(OCCOC)c(S(=O)(=O)N(C)C)c1 (centres unmarked) [Example 29, 3-Bromo-5-(3-cyano-2-methyl-5-oxo-7-propyl-1,4,5,6,7,8-hexahydro-quinolin-4-yl)-2-(2-methoxy-ethoxy)-N,N-dimethyl-benzenesulfonamide] | < 10
2 | CCCC1CC(=O)C2=C(C1)NC(C)=C(C#N)C2c1cc(Br)c(NCCOC)c(S(=O)(=O)N2CCCC2)c1 (centres unmarked) [Example 32, 4-[3-Bromo-4-(2-methoxy-ethylamino)-5-(pyrrolidine-1-sulfonyl)-phenyl]-2-methyl-5-oxo-7-propyl-1,4,5,6,7,8-hexahydro-quinoline-3-carbonitrile] | < 10
3 | CCCC1CC(=O)C2=C(C1)NC(C)=C(C#N)C2c1cc(Br)c(OCC=CCNC(=O)C2CC2)c(OCC)c1 (centres unmarked) [Example 3, Cyclopropanecarboxylic acid {4-[2-bromo-4-(3-cyano-2-methyl-5-oxo-7-propyl-1,4,5,6,7,8-hexahydro-quinolin-4-yl)-6-ethoxy-phenoxy]-but-2-enyl}-amide] | < 10
4 | CCCC1CC(=O)C2=C(C1)NC(C)=C(C#N)C2c1cc(Br)c(OCCCCCCNS(=O)(=O)C(C)C)c(OCC)c1 (centres unmarked) [Example 20, Propane-2-sulfonic acid {6-[2-bromo-4-(3-cyano-2-methyl-5-oxo-7-propyl-1,4,5,6,7,8-hexahydro-quinolin-4-yl)-6-ethoxy-phenoxy]-hexyl}-amide] | < 10
5 | CCCC1CC(=O)C2=C(C1)NC(C)=C(C#N)C2c1cc(Br)c(OCC=CCNC(=O)COC)c(OCC)c1 (centres unmarked) [Example 5, N-{4-[2-Bromo-4-(3-cyano-2-methyl-5-oxo-7-propyl-1,4,5,6,7,8-hexahydro-quinolin-4-yl)-6-ethoxy-phenoxy]-but-2-enyl}-2-methoxy-acetamide] | < 10
6 | CCCC1CC(=O)C2=C(C1)NC(C)=C(C#N)C2c1cc(Br)c(OCC=CCO)c(OCC)c1 (centres unmarked) [Example 28, 4-[3-Bromo-5-ethoxy-4-(4-hydroxy-but-2-enyloxy)-phenyl]-2-methyl-5-oxo-7-propyl-1,4,5,6,7,8-hexahydro-quinoline-3-carbonitrile] | < 10
7 | CCCC1CC(=O)C2=C(C1)NC(C)=C(C#N)C2c1cc(Br)c(OCCOCCO)c(S(=O)(=O)N(C)C)c1 (centres unmarked) [Example 23, 3-Bromo-5-(3-cyano-2-methyl-5-oxo-7-propyl-1,4,5,6,7,8-hexahydro-quinolin-4-yl)-2-[2-(2-hydroxy-ethoxy)-ethoxy]-N,N-dimethyl-benzenesulfonamide] | < 10
8 | CCCC1CC(=O)C2=C(C1)NC(C)=C(C#N)C2c1cc(Br)c(OCCOCCOC)c(S(=O)(=O)N(C)C)c1 (centres unmarked) [Example 30, 3-Bromo-5-(3-cyano-2-methyl-5-oxo-7-propyl-1,4,5,6,7,8-hexahydro-quinolin-4-yl)-2-[2-(2-methoxy-ethoxy)-ethoxy]-N,N-dimethyl-benzenesulfonamide] | < 10

More lines, now with the values ahead:

Row | EC50 [nM] | Structure (SMILES)
9 | < 10 | CCCC1CC(=O)C2=C(C1)NC(C)=C(C#N)C2c1cc(Br)c(NCCOC)c(S(=O)(=O)N2CCOCC2)c1 (centres unmarked) [Example 31, 4-[3-Bromo-4-(2-methoxy-ethylamino)-5-(morpholine-4-sulfonyl)-phenyl]-2-methyl-5-oxo-7-propyl-1,4,5,6,7,8-hexahydro-quinoline-3-carbonitrile]
10 | < 10 | CCCC1CC(=O)C2=C(C1)NC(C)=C(C#N)C2c1cc(Br)c(OCCCCNC(=O)C(C)C)c(OCC)c1 (centres unmarked) [Example 13, N-{4-[2-Bromo-4-(3-cyano-2-methyl-5-oxo-7-propyl-1,4,5,6,7,8-hexahydro-quinolin-4-yl)-6-ethoxy-phenoxy]-butyl}-isobutyramide]
11 | < 10 | CCCC1CC(=O)C2=C(C1)NC(C)=C(C#N)C2c1cc(Br)c(OCCO)c(S(=O)(=O)N(C)C)c1 (centres unmarked) [Example 26, 3-Bromo-5-(3-cyano-2-methyl-5-oxo-7-propyl-1,4,5,6,7,8-hexahydro-quinolin-4-yl)-2-(2-hydroxy-ethoxy)-N,N-dimethyl-benzenesulfonamide]
12 | < 10 | CCCC1CC(=O)C2=C(C1)NC(C)=C(C#N)C2c1cc(Br)c(OCC=CC(=O)NCc2ccccn2)c(OCC)c1 (centres unmarked) [Example 12, 4-[2-Bromo-4-(3-cyano-2-methyl-5-oxo-7-propyl-1,4,5,6,7,8-hexahydro-quinolin-4-yl)-6-ethoxy-phenoxy]-but-2-enoic acid (pyridin-2-ylmethyl)-amide]
13 | < 10 | CCCC1CC(=O)C2=C(C1)NC(C)=C(C#N)C2c1cc(Br)c(OCCOCCNC(=O)C2CC2)c(OCC)c1 (centres unmarked) [Example 22, Cyclopropanecarboxylic acid (2-{2-[2-bromo-4-(3-cyano-2-methyl-5-oxo-7-propyl-1,4,5,6,7,8-hexahydro-quinolin-4-yl)-6-ethoxy-phenoxy]-ethoxy}-ethyl)-amide]
14 | < 10 | CCCC1CC(=O)C2=C(C1)NC(C)=C(C#N)C2c1cc(Br)c(OCC=CCNC(=O)OCC)c(OCC)c1 (centres unmarked) [Example 6, {4-[2-Bromo-4-(3-cyano-2-methyl-5-oxo-7-propyl-1,4,5,6,7,8-hexahydro-quinolin-4-yl)-6-ethoxy-phenoxy]-but-2-enyl}-carbamic acid ethyl ester]
15 | < 10 | CCCC1CC(=O)C2=C(C1)NC(C)=C(C#N)C2c1cc(Br)c(OCC=CCNC(=O)C(C)C)c(OCC)c1 (centres unmarked) [Example 2, N-{4-[2-Bromo-4-(3-cyano-2-methyl-5-oxo-7-propyl-1,4,5,6,7,8-hexahydro-quinolin-4-yl)-6-ethoxy-phenoxy]-but-2-enyl}-isobutyramide]
16 | < 10 | CCCC1CC(=O)C2=C(C1)NC(C)=C(C#N)C2c1cc(Br)c(OCCOCCO)c(OC(C)C)c1 (centres unmarked) [Example 24, 4-{3-Bromo-4-[2-(2-hydroxy-ethoxy)-ethoxy]-5-isopropoxy-phenyl}-2-methyl-5-oxo-7-propyl-1,4,5,6,7,8-hexahydro-quinoline-3-carbonitrile]
17 | < 10 | CCCC1CC(=O)C2=C(C1)NC(C)=C(C#N)C2c1cc(Br)c(OCCCCCNC(=O)COC)c(OCC)c1 (centres unmarked) [Example 17, N-{5-[2-Bromo-4-(3-cyano-2-methyl-5-oxo-7-propyl-1,4,5,6,7,8-hexahydro-quinolin-4-yl)-6-ethoxy-phenoxy]-pentyl}-2-methoxy-acetamide]
